Test results as given in US7252953B2, “Method of detecting and preventing Alzheimer's disease, particularly at prodromal and early stages” (United States of America Department of Veterans Affairs, priority 2002, dated 2007).

Key:
[1] = system: GRK5; assay: GRK5 subcellular distribution in sAβ-treated microglial cells (immunocytochemistry, semi-quantified); type: cell-based, murine; conditions: ICC; for translocation of GRK5 from cell membrane to cytosol: 5 min, primary murine microglial cells, serum-free medium
Experimental: (§1) Primary microglial cultures were prepared from neonatal mouse (C57BL6) brains as previously described (Reference 29) and maintained in Delbecco's modified Eagle's medium with F-12 nutrient mixture (DMEM/F12) containing 10% fetal bovine sera (FBS) and antibiotics. N9 clonal murine microglial cell cultures were maintained in Iscoves modified Delbecco's medium (IMDM) containing 5% heat-inactivated FBS, 2 mM L-glutamine, 50 μM 2-mercaptoethanol and antibiotics. Treatment of both primary and N9 microglial cells were performed under serum-free conditions.
Microglial cells were seeded onto poly-L-lysine-coated 8-chamber slides at a density of 1×10^4/well. After various treatments, cells were immediately fixed with pre-chilled (4° C.) 5% acetic acid in methanol for 45 min at 4° C., followed by washing with PBS. The fixed cells were blocked and double-stained with phalloidin-FITC (1:1,000) and anti-GRK5 (1:500) or GRK2 (1:500). Secondary antibody-Cy3 conjugates (1:500) staining, washing, mounting and confocal microscopic visualization were performed routinely as previously described (Reference 29).
Briefly, the selected cell image corresponding to GRK staining, was copied, enlarged, inverted and rotated to an appropriate position for quantification with NIH Image. […] FIGS. 3E and F show the examples of profiles for the solid-line indicated levels in FIGS. 3C and D, respectively. The dark and light grey areas in FIGS. 3E and F represent membrane and Cyto, respectively. The sum of areas for membrane and Cyto from all slices in each cell represents GRK subcellular distribution in this particular cell. For each treatment, 20 randomly selected cells were quantified and the average data were shown.
Microglial-mediated inflammation is an important pathological component of AD (Reference 28). […] Thrombin, a serine protease is known to activate protease-activated GPCRs, (PARs) such as PAR1 (Reference 29) and PAR4 in microglia.
N9 microglial cells were treated with sAβ1-42 (500 nM) for 5 minutes. […] The detailed methods for semi-quantification of GRK subcellular distribution are described in Methods section (above).

[2] = system: [Ca^2+]i; assay: Ca2+ imaging (Fluo-4) in microglial cells; type: cell-based, murine; conditions: sAβ1-42 500 nM alone
Experimental: as §1, with “conditions. Freshly solublized Aβ (BioSource, Camarillo, Calif.) peptides were prepared and characterized as previously described (References 30 and 44) and were used in all in vitro experiments. Unless specified, cells were always pretreated with sAβ for 5 min and then followed by challenge with α-thrombin (100 nM or as indicated), glutamate (2 mM) or LPS (5 ng/ml).” for “conditions.”
We measured [Ca^2+]i in microglial cells using Fluo-4 (2 μM) with the aid of a Nikon BioRadiance triple laser scanning confocal microscope. Image collection, quantification and data analysis were performed as previously described (Reference 29).
In previous studies, we found thrombin signaling via PARs in microglial cells involving [Ca^2+]i increase and transient activation of both p38 and p44/42 mitogen-activated protein kinases (MAPKs) (Reference 29). To understand potential consequences of GRK dysfunction induced by sAβ, for these studies we also assessed changes in thrombin signaling in sAβ-pretreated microglial cells.
FIG. 5A, N9 microglial cells were pre-treated with 500 nM sAβ1-42 (arrow “1”) followed by 100 nM thrombin treatment (arrow “2”). Changes in [Ca^2+]i were measured as previously described (Reference 29) from three separate experiments. […] For both FIGS. 5B and 5C, lane M=Marker, 1=Control (0 min), 2=Control (25 min), 3=Aβ1-42 (25 min), 4=Thrombin (20 min), 5=Aβ1-42+thrombin (20 min post-Aβ), 6=Control (24 h), 7=Aβ1-42 (24 h), 8=Thrombin (24 h) and 9=Aβ1-42+thrombin (24 h post-Aβ). “P” and “T” indicate phosphorylated and total p38 or p44/42 MAPKs, respectively.

[3] = system: TNF-α; assay: TNF-α release in primary mouse brain microglial cultures; type: cell-based; conditions: 5 min pretreatment, FIG. 6A
Experimental: as §1, with “conditions. Freshly solublized Aβ (BioSource, Camarillo, Calif.) peptides were prepared and characterized as previously described (References 30 and 44) and were used in all in vitro experiments. Unless specified, cells were always pretreated with sAβ for 5 min and then followed by challenge with α-thrombin (100 nM or as indicated), glutamate (2 mM) or LPS (5 ng/ml).” for “conditions.”
(§2) TNF-α production in microglial culture media was measured and standardized as previously described (Reference 29).
(§3) Given our results that sAβ disrupts GRK function and inhibits GPCR desensitization in microglia, we next investigated whether such signaling dysregulation might lead to cellular functional changes in microglia. Both primary and N9 clonal murine microglial cultures were used and TNF-α secretion in culture media was measured as an outcome. […] Moreover, the potentiation effect of sAβ on thrombin and glutamate-induced microglial activation was dose-dependent, with a minimal effective concentration (ECmin) of 20 nM and a maximal EC (ECmax) of 500 nM. Furthermore, the enhancement effect was not observed if sAβ was given after (10 min) thrombin or glutamate treatments. […] Together with the evidence that sAβ inhibits GRK-GPCR interactions and causes prolongation of GPCR signaling, we conclude that sAβ, by disrupting GRK function, alters microglial reactivity to specific GPCR activators.
FIG. 6A, pretreatment with sAβ1-42 potentiated (p<0.01) TNF-α release induced by increasing doses of thrombin (Thr) as indicated from primary mouse brain microglial cultures. n=4. […]

[4] = system: TNF-α; assay: TNF-α release in N9 clonal murine microglial cells; type: cell-based
Experimental: as §1, with “conditions. Freshly solublized Aβ (BioSource, Camarillo, Calif.) peptides were prepared and characterized as previously described (References 30 and 44) and were used in all in vitro experiments. Unless specified, cells were always pretreated with sAβ for 5 min and then followed by challenge with α-thrombin (100 nM or as indicated), glutamate (2 mM) or LPS (5 ng/ml).” for “conditions.”
as §2, §3
FIG. 6A, pretreatment with sAβ1-42 potentiated (p<0.01) TNF-α release induced by increasing doses of thrombin (Thr) as indicated from primary mouse brain microglial cultures. n=4. […] The ECmin and ECmax for sAβ's potentiation are approximately 20 nM and 500 nM, respectively. n=6.

[5] = 5 min pretreatment, N9 cells, FIG. 6B

Compound | translocation of GRK5 from cell membrane to cytosol ([1]; 50 nM peptide) | translocation of GRK5 from cell membrane to cytosol ([1]; 500 nM peptide) | translocation of GRK5 from membrane to cytosol compartment ([1]; 500 nM, 5 minutes, N9 microglial cells) | change of free [Ca^2+]i [2] | time for [Ca^2+]i to return to basal levels [2] [min] | effect of sAβ pretreatment on thrombin-induced TNF-α release [3] | effect of sAβ pretreatment on LPS-induced TNF-α release [4, 5] | effect of sAβ pretreatment on glutamate-induced TNF-α release [4, 5] | effect of sAβ pretreatment on thrombin-induced TNF-α release [4, 5] | enhancement of TNF-α release when sAβ is given after thrombin or glutamate (post-treatment) ([4]; sAβ given 10 min after thrombin or glutamate) | TNF-α release induced by the activator alone ([4]; single dose, N9 cells, FIG. 6B)
sAβ1-42: Freshly solubilized soluble β-amyloid 1-42 peptide (BioSource), mixture of monomeric and oligomeric Aβ | To a lesser extent, similar GRK5 changes were also observed | induced a rapid translocation of GRK5 from cell membrane to cytosol | induced a rapid translocation of GRK5 from membrane to cytosol compartment | slow and moderate increase | ≤ 4 | potentiated | not | dose-dependently potentiated | dose-dependently potentiated | not | –
N[C@@H](CCC(=O)O)C(=O)O [glutamate] | – | – | – | – | – | – | – | – | – | – | significantly stimulated
sAβ1-40: Freshly solubilized soluble β-amyloid 1-40 peptide (BioSource) | not | – | – | – | – | – | – | – | – | – | –
